Reference: PMC7583046, “The Paralogue of the Intrinsically Disordered Nuclear Protein 1 Has a Nuclear Localization Sequence that Binds to Human Importin α3” (International Journal of Molecular Sciences, 2020)

Tests used:
Impα3 = conditions: 35 μM peptide, pH 7.2, 50 mM deuterated Tris, 1-1 echo sequence
Protocol: The NMR experiments were acquired at 283 K on a Bruker Avance spectrometer (Bruker GmbH, Karlsruhe, Germany), equipped with a triple resonance probe and z-pulse field gradients. All experiments with NLS-NUPR1L were carried out at pH 7.2, 50 mM deuterated Tris buffer (not corrected for isotope effects). The spectra were calibrated with TSP ((trimethylsilyl)-2,2,3,3-tetradeuteropropionic acid), by considering pH-dependent changes of its chemical-shifts; probe temperature was calibrated with methanol.
Measurements of the T2 (transverse relaxation time) provide a convenient method to determine the molecular mass of a macromolecule, as the correlation time, τc, is approximately equal to 1/(5 × T2). We measured the T2 of one of the indole protons (Section 2.2.1) for NLS-NUPR1L (at 35 μM concentration) in isolation and in the presence of Impα3 (at a final concentration of 7 μM) with the 1-1 echo sequence. The calculation of the T2 was carried out as described.

[1] = DOSY translational diffusion NMR; type: physicochemical; conditions: 120 μM peptide, 283 K
Protocol: The peptide concentration in DOSY experiment was 120 μM, and 128 scans were acquired, where the gradient strength was varied linearly. Translational self-diffusion measurements were performed with the pulsed-gradient spin-echo sequence in the presence of 100% D2O. Experimental details have been described elsewhere. The gradient strength was varied in sixteen linear steps between 2 and 95% of the total power of the gradient coil. The gradient strength was calibrated using the value of the translational diffusion coefficient, D, for the residual proton water signal in a sample containing 100% D2O in a 5 mm tube [53]. The length of the gradient was 2.25 ms, the time between the two pulse gradients in the pulse sequence was 200 ms, and the recovery delay between the bipolar gradients was 100 μs. The methyl groups with signals between 1.0 and 0.80 ppm were used for peak integration (Section 2.2.1). Fitting of the exponential curves, obtained from experimental data as previously described, was carried out with KaleidaGraph version 3.5 (Synergy Software, Reading, PA, USA). A final concentration of 1% of dioxane, which was assumed to have a hydrodynamic radius Rh = 2.12 Å [53], was added to the peptide solution.

[2] = target: T1, human importin α3 (Impα3) (Homo sapiens, UniProt O00629); assay: Isothermal titration calorimetry, binding to Impα3; conditions: Tris 50 mM pH 8, 298 K
T1 construct: Human importin α3 isoform (residues 1–521); His-tag (N); made in house; host or cells: E. coli BL21 (DE3)
T1 sequence (O00629 1-521): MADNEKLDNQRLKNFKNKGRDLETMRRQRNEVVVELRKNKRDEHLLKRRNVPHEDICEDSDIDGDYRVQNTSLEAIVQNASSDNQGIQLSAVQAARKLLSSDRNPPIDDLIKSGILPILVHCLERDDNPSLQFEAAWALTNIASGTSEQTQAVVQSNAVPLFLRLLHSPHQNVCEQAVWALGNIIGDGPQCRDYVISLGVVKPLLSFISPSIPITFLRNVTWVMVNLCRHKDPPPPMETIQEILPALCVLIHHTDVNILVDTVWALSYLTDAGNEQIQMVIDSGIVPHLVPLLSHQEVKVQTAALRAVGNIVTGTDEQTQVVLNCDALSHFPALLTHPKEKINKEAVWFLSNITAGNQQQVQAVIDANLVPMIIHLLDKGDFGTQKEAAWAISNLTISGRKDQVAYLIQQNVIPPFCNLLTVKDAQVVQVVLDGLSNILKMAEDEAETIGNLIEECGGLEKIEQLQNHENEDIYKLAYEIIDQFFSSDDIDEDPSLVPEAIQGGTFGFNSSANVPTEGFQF
Description: Figure 4 Binding of NLS-NUNPR1L to both importin species: (A) Titration curve monitoring the changes of Impα3 fluorescence at 340 nm in the presence of NLS-NUPR1L, after excitation at 280 nm. (B) Titration curve monitoring the changes of ∆Impα3 fluorescence at 340 nm in the presence of NLS-NUPR1L, after excitation at 280 nm. […] (C) Calorimetric binding isotherms (ligand normalized heat effect per injection as a function of the ligand/protein molar ratio) for the interaction of NLS-NUPR1L with Impα3 (left) and ∆Impα3 (right) are shown, with the thermogram (raw thermal power data as a function of time) at the top of each panel. Binding parameters were estimated by non-linear least squares regression data analysis of the interaction isotherms applying a single ligand binding site model implemented in Origin 7.0. (OriginLab, Northampton, MA, USA).
The experimental set-up and data processing of ITC experiments have been described previously. […] The temperature for all experiments was 298 K. The experiments were analyzed applying a model considering a single ligand binding site (1:1 stoichiometry for the NLS-NUPR1L/Impα3 (or ∆Impα3) interaction) implemented in Origin 7.0 (OriginLab, Northampton, MA, USA).

## Ac-RTRREQALRTNWPAPGGHERKVAQ-NH2 [NLS-NUPR1L]
Impα3; 7 μM Impα3, 283 K
  T2 of most up-field indole signal, in the presence of Impα3: 36.7 ms
Impα3; 283 K
  T2 of most up-field indole signal, isolated peptide: 62.2 ms
[1]; 100% D2O, pH 7.2, 50 mM Tris
  translational diffusion coefficient D: 1.74 ± 0.05 × 10^−6 cm^2 s^−1
[1]
  association state: monomeric
[1]; estimated by comparison with dioxane (1%)
  hydrodynamic radius Rh: 12 ± 2 Å
[2]
  n, stoichiometry (ITC), Impα3: 1.04 ± 0.05
  ∆H (ITC), Impα3: -3.1 ± 0.5 kcal/mol
